Reference: patent US4045433A, “1,3,4,5-Tetrahydro-2H-1,4-benzodiazepin-2-ones” (priority 1974, dated 1977)
Entries after “also recorded” stand apart in the source; their conditions may differ. Read-outs that look alike come from different tables or passages of the source.

Columns and labels:
CFLP mice [1] = experiment: Antimetrazole activity (protection from tonic extensor spasm); format: in vivo; settings: for ED50: Mus musculus, 1 h
Method: 1. The first series of examinations was carried out according to the method of Everett and Richards (Everett G. M., Richards R. K.: J. Pharm. Exp. Ther. 81, 402 (1944)). 125 mg./kg. of metrazole were administered subcutaneously to the test animals. 1 hour after the administration the animals protected from tonic extensor spasm and the surviving animals were counted.

Acute toxicity = format: in vivo, CFLP mice; settings: mouse, in vivo, death rate observed for one week
CFLP mice [2] = experiment: Hexobarbital narcosis potentiating effect; format: in vivo; settings: screen test, i.p., 1 hour before hexobarbital 60 mg./kg. into tail vein; change of sleeping period related to controls
Method: The hexobarbital narcosis potentiating effect was determined by the method of Rumke et al. (Arch. Int. […]. The change of sleeping period was expressed in percent related to the controls.

CFLP mice [3] = experiment: Maximum electroshock (anti-electroshock activity); format: in vivo; settings: 1 hour before test; for ED50: Mus musculus, 1 h
Excerpt: 2. Maximum electroshock stimulus (100 Hz, 30 V, 0.2 sec.) was applied according to the method of Swinyard et al. (Swinyard E. A., Brown W. C., Goodman, L. S.: J. Pharmacol. 106, 319 (1952)). The animals showing no tonix extension on the hind limb upon stimulus were considered as protected.

[4] = Rotarod test (muscle incoordination and ataxia); format: in vivo, CFLP mice; settings: mouse, in vivo, 1 hour before test
Method: (§1) a. Rotarod test: The test was carried out according to the method of Kinnard and Carr (Brit. J. Pharmacol. Exp. Ther. 121, 354 (1957)). […] The ED50 values were calculated from the percentage of the animals falling down within 120 sec.

CFLP mice [5] = experiment: Narcosis potentiating effect (sodium barbiturate); format: in vivo; settings: for ED50: Mus musculus, po, 1 hour before sodium barbiturate 100 mg./kg. i.p.; for Narcosis potentiation ED50 : Antimetrazole ED50: ratio (3) of Table 2, p.o.
[6] = Traction test (muscle incoordination and ataxia); parameters: species or system CFLP mice; settings: mouse, in vivo, po, 1 hour before test; read-out: Traction test ED50
Method: b. Traction test: The test was carried out according to the method of Theobald et al. (Arch. int. Pharmacodyn. 148, 560 (1964)). The two anterior limbs of the test animals were placed onto a horizontal rod so as to let the animals clutch the rod. […] The ED50 values were calculated from the percentage of the animals showing negative response.

CFLP mice [7] = experiment: Disappearance of righting reflex; format: in vivo; settings: Mus musculus, po
CFLP mice [8] = experiment: Rotarod test (muscle incoordination and ataxia); format: in vivo; settings: for Rotarod ED50 : Antimetrazole ED50: ratio (1) of Table 2, p.o.
Method: as §1

CFLP mice [9] = experiment: Antagonism of strychnine spasm; format: in vivo; settings: for ED50: Mus musculus, po, 1 h, read-out: Antistrychnine activity ED50; for Antistrychnine ED50 : Antimetrazole: ratio (2) of Table 2, p.o.
Method: Tonic extensor spasm was produced by administering an intraperitoneal dosage of 2 mg./kg. of strychnine to the animals (Kerley T. L., Richards A. G., Begley, R. W., Abren, B. E. and Weaver, L. C: J. Pharmacol. Exp. Ther. 132, 360 (1961)). The animals showing no spasm were considered as protected.

CFLP mice [10] = experiment: Sedative and muscle relaxant effects (overall assessment); format: in vivo; settings: in words
CFLP mice [11] = experiment: Acute toxicity; format: in vivo
[12] = ip, screen test, i.p., 1 hour before test, metrazole 125 mg./kg. s.c., read-out: Antimetrazole ED50
[13] = ip, screen test, i.p., read-out: Anti-electroshock ED50 ip.
[14] = ip, screen test, i.p., read-out: Rotarod ED50
[15] = po, p.o., 1 hour before test, metrazole 125 mg./kg. s.c., 95% confidence limit in next line, read-out: Antimetrazole activity ED50
[16] = po, 12/min., 120 sec., read-out: Rotarod test ED50
[17] = po, read-out: Acute toxicity (LD50)
[18] = po, p.o., 100 Hz, 30 V, 0.2 sec., read-out: Anti-electroshock activity ED50

| SMILES | ED50 (CFLP mice [1]; [12]) | LD50 at 168 h (Acute toxicity; ip, read-out: LD50 i.p.) | Hexobarbital potentiation, % (CFLP mice [2]) | ED50 (CFLP mice [3]; [13]) | also measured |
| --- | --- | --- | --- | --- | --- |
| CCOC(=O)N1CC(=O)Nc2ccc([N+](=O)[O-])cc2C1c1ccccc1 (stereo not shown) [Example 2, 4-Ethoxycarbonyl-5-phenyl-7-nitro-1,3,4,5-tetrahydro-2H-1,4-benzodiazepine-2-one] | 12.5 mg/kg | > 1600 mg/kg | 168% | 14 mg/kg | – |
| CN1C(=O)CN(C(N)=O)C(c2ccccc2)c2cc(Cl)ccc21 (single isomer, unassigned; (+)) [Example 55, (+)-1-Methyl-4-carbamoyl-5-phenyl-7-chloro-1,3,4,5-tetrahydro-2H-1,4-benzodiazepine-2-one] | 1.65 mg/kg | 611 mg/kg | 368% | 10 mg/kg | TD50 at 1 h [4, 14]: 7 mg/kg |
| CNC1=Nc2ccc(Cl)cc2C(c2ccccc2)=[N+]([O-])C1 [Chlorodiazepoxide, reference compound] | – | – | – | – | ED50 (CFLP mice [5]): 8.1 mg/kg; Narcosis potentiation ED50 : Antimetrazole ED50 (CFLP mice [5]): 3.3; TD50 at 1 h [6]: 31.2 mg/kg; ED50 (CFLP mice [1]; [15]): 2.47 mg/kg; ED50 (CFLP mice [7]): 436 mg/kg; TD50 at 1 h [4, 16]: 12.2 mg/kg; Rotarod ED50 : Antimetrazole ED50 (CFLP mice [8]): 4.9; LD50 at 168 h (Acute toxicity; [17]): 850 mg/kg; ED50 (CFLP mice [9]): 28.4 mg/kg; Antistrychnine ED50 : Antimetrazole (CFLP mice [9]): 11.5; ED50 (CFLP mice [3]; [18]): 23.5 mg/kg |
| CCCCNC(=O)N1CC(=O)Nc2ccc([N+](=O)[O-])cc2C1c1ccccc1 (stereo not shown) [Example 18, 4-n-Butylcarbamoyl-5-phenyl-7-nitro-1,3,4,5-tetrahydro-2H-1,4-benzodiazepine-2-one] | 14 mg/kg | 320 mg/kg | 77% | 20 mg/kg | – |
| CN1C(=O)CN(C=O)C(c2ccccc2)c2cc(Cl)ccc21 (stereo not shown) [Example 33, 1-Methyl-4-formyl-5-phenyl-7-chloro-1,3,4,5-tetrahydro-2H-1,4-benzodiazepine-2-one] | 3.4 mg/kg | 688 mg/kg | 110% | 14 mg/kg | TD50 at 1 h [4, 14]: 23 mg/kg |
| CC(=O)N1CC(=O)N(C)c2ccc(Cl)cc2C1c1ccccc1 (stereo not shown) [Example 28, 1-Methyl-4-acetyl-5-phenyl-7-chloro-1,3,4,5-tetrahydro-2H-1,4-benzodiazepine-2-one] | 7 mg/kg | 312 mg/kg | 125% | 20 mg/kg | – |
| CNC(=O)N1CC(=O)Nc2ccc([N+](=O)[O-])cc2C1c1ccccc1 (stereo not shown) [Example 14, 4-Methylcarbamoyl-5-phenyl-7-nitro-1,3,4,5-tetrahydro-2H-1,4-benzodiazepine-2-one] | 19.5 mg/kg | 936 mg/kg | 75% | 20 mg/kg | – |
| CN1C(=O)CN(C(=O)c2ccccc2Cl)C(c2ccccc2)c2cc(Cl)ccc21 (stereo not shown) [Example 31, 1-Methyl-4-(o-chlorobenzoyl)-5-phenyl-7-chloro-1,3,4,5-tetrahydro-2H-1,4-benzodiazepine-2-one] | 14 mg/kg | > 1600 mg/kg | 85% | 20 mg/kg | – |
| CNC(=O)N1CC(=O)Nc2ccccc2C1c1ccccc1 (stereo not shown) [Example 15, 4-Methylcarbamoyl-5-phenyl-1,3,4,5-tetrahydro-2H-1,4-benzodiazepine-2-one] | 20 mg/kg | > 500 mg/kg | 93% | 20 mg/kg | – |
| CN1C(=O)CN=C(c2ccccc2)c2cc(Cl)ccc21 [Diazepam] | – | – | – | – | ED50 (CFLP mice [5]): 3.9 mg/kg; Narcosis potentiation ED50 : Antimetrazole ED50 (CFLP mice [5]): 5.2; ED50 (CFLP mice [1]; [15]): 0.75 mg/kg; ED50 (CFLP mice [7]): 238 mg/kg; Rotarod ED50 : Antimetrazole ED50 (CFLP mice [8]): 4.3; ED50 (CFLP mice [9]): 5.71 mg/kg; Antistrychnine ED50 : Antimetrazole (CFLP mice [9]): 7.6; ED50 (CFLP mice [3]; [18]): 8.29 mg/kg |
| NC(=O)N1CC(=O)Nc2ccc(Cl)cc2C1c1ccccc1 (stereo not shown) [Example 13, 4-Carbamoyl-5-phenyl-7-chloro-1,3,4,5-tetrahydro-2H-1,4-benzodiazepine-2-on] | 4.9 mg/kg | 367 mg/kg | 89% | 14 mg/kg | TD50 at 1 h [4, 14]: 13.5 mg/kg |
| CC(NC(=O)N1CC(=O)N(C)c2ccc(Cl)cc2C1c1ccccc1)c1ccccc1 (stereo not shown) [Example 24, 1-Methyl-4-(1-methyl-benzylcarbamoyl)-5-phenyl-7-chloro-1,3,4,5-tetrahydro-2H-1,4-benzodiazepine-2-one] | 13.5 mg/kg | 271 mg/kg | 96% | 20 mg/kg | – |
| CNC(=O)N1CC(=O)Nc2ccc(Cl)cc2C1c1ccccc1 (stereo not shown) [Example 16, 4-Methylcarbamoyl-5-phenyl-7-chloro-1,3,4,5-tetrahydro-2H-1,4-benzodiazepine-2-one] | 4.1 mg/kg | 800 mg/kg | 104% | 14 mg/kg | – |
| CN1C(=O)CN(C(N)=O)C(c2ccccc2)c2cc(Cl)ccc21 (racemic) [Compound "A", 1-methyl-4-carbamoyl-5-phenyl-7-chloro-1,3,4,5-tetrahydro-2H-1,4-benzodiazepine-2-one] | – | – | – | – | ED50 (CFLP mice [5]): 8.8 mg/kg; Narcosis potentiation ED50 : Antimetrazole ED50 (CFLP mice [5]): 13.3; TD50 at 1 h [6]: 26.9 mg/kg; ED50 (CFLP mice [1]; [15]): 0.66 mg/kg; tetrachor spasm inhibiting effect / anticonvulsive effect compared with Diazepam (CFLP mice [1]; in words, vs Diazepam): practically identical to that of Diazepam; animals protected against metrazole spasm (CFLP mice [1]; single intravenous dosage of 5 mg./kg., 7 hours after administration): 50%; ED50 (CFLP mice [7]): 1400 mg/kg; TD50 at 1 h [4, 16]: 6.7 mg/kg; Rotarod ED50 : Antimetrazole ED50 (CFLP mice [8]): 10.2; sedative and muscle relaxant effects compared with Diazepam (CFLP mice [10]): provokes muscle relaxation and sedation only in higher dosages; also recorded: much lower; relation of the effects to those of the reference substances (CFLP mice [10]; vs Chlorodiazepoxide and Diazepam): more closely related to those of Chlorodiazepoxide than of Diazepam; dosages provoking muscle incoordination, muscle relaxation, and narcosis potentiation in relation to the dosage provoking anticonvulsive effect (CFLP mice [10]; vs reference substances Diazepam and Chlorodiazepoxide): clearly more advantageous than the reference substances; LD50 at 168 h (Acute toxicity; [17]): 1680 mg/kg; therapeutic index compared with Diazepam (CFLP mice [11]; in words): more favourable; ED50 (CFLP mice [9]): 26 mg/kg; Antistrychnine ED50 : Antimetrazole (CFLP mice [9]): 39.4; ED50 (CFLP mice [3]; [18]): 19.3 mg/kg |
| CN1C(=O)CN(C(N)=O)C(c2ccccc2)c2cc(Cl)ccc21 (single isomer, unassigned; (-)) [Example 56, (-)-1-Methyl-4-carbamoyl-5-phenyl-7-chloro-1,3,4,5-tetrahydro-2H-1,4-benzodiazepine-2-one] | – | – | 112% | – | Antimetrazole ED50 (CFLP mice [1]; screen test, i.p., 1 hour before test, metrazole 125 mg./kg. s.c., 60 min): 2.2 mg/kg; Rotarod ED50 (CFLP mice [8]; screen test, i.p., 1 hour before test, 60 min): 13.0 mg/kg; LD50 i.p. (CFLP mice [11]; i.p., death rate observed for one week, 10080 min): 661.2 mg/kg; Anti-electroshock ED50 ip. (CFLP mice [3]; screen test, i.p., 60 min): 8.4 mg/kg |
